Results published in patent publication US20090182028A1, “Plant Components and Extracts and Uses Thereof” (G.I.M. GESELLSCHAFT-FUR INNOVATIVE MEDIZIN G.M.B.H NFG OHG, priority 2006, published 2009).
“Also recorded” adds a separate entry of the source. Read-outs that look alike come from different tables or passages of the source. Blank lines part the entries; values can stand above or below the compound they belong to.

Legend:
Format in all cases: cell-based
[1] = target: T1, human AhR (Homo sapiens, UniProt P35869); assay: Yeast AhR screen (strain YCM3), assay in plastic tubes
T1 construct: expressed in transfected cells; host or cells: Saccharomyces cerevisiae strain YCM3 (gift of Charles Miller)
Text: (§1) The yeast AhR screen is an in-vitro test to detect transactivating potential of substances on the arylhydrocarbon receptor. The recombinant yeast strain YCM3 of Saccharomyces cerevisiae, which was a present of Charles Miller, was used. The assay procedure was essentially as described by Miller. The human AhR and ARNT genes are integrated into chromosome III of the yeast. The galactose-regulated GAL 1, 10 promotor is accountable for the expression of AhR and ARNT in equal shares by induction with galactose, the carbon source of the medium (GOLD medium-trp). If a ligand of the AhR is present, an AhR/ARNT heterodimer is built and can bind to the five xenobiotic response elements of the lacZ-reporter plasmid and induce the expression of the lacZ-gene. Therefore the transcriptional activation of a ligand is quantified via β-galactosidase activity. […] The yeast AhR assay was performed in 50 ml plastic tubes with conical bottom and in microtiterplates.
A colony of YCM3 was transferred in SCM-trp medium and grown to OD600 of about 2.0. For each experiment a new overnight culture was prepared in SCM-trp medium. For this purpose a 1:10 dilution of the YCM3 yeast stock in SCM-trp medium was prepared. After incubation overnight the culture was diluted to an OD600 of 0.4 and grown again to an OD600 of 1.0 to 1.5. For the assay the culture was 1:50 diluted in Gold galactose-trp media, which contains 1.2% galactose as the inductor. 50 μl of test substance (dissolved in DMSO) and 5 ml of this yeast culture were incubated for 17 h at 30° C. while shaking. The tubes have to be in an inclined position for optimal yeast growth. For the blank only 50 μl of DMSO were added to the yeast culture. A calibration curve with β-naphtoflavone was performed within each test run. After incubation cells were collected by centrifugation at 2500 rpm for 5 min. The supernatant was discarded, the pellets were resuspended in 1 ml lacZ-buffer, transferred into 1.5 ml test tubes and centrifuged at 10 000 rpm and 4° C. for 5 min. The supernatant was removed again and the pellets were resuspended in 100 μl lacZ buffer. Disintegration of the yeast cells was performed by vortexing with glass beads (3 times for 30 s with a rest on ice of 15 s between the vortexes). After centrifugation at 10 000 rpm and 4° C. for 10 min, the clear supernatant was used to perform the β-galactosidase and the protein-assay.
For the β-galactosidase-assay 5 μl from each test tube were transferred to a 96-well microtiterplate. 250 μl of a 1:6 diluted o-nitrophenyl-b-galactopyranoside (ONPG)-solution (dilution with lacZ-buffer) were added to each well. The microtiterplate was incubated at 37° C. until a yellow colour had developed. The reaction was stopped by adding 100 μl of 1 M Na2CO3 and the reaction time was noticed. […] Each determination was carried out in duplicates.
For the protein assay a modified method according to Bradford was performed. 5 μl of the supernatant of each test tube were transferred to the microtiterplate and 250 μl of Bio-Rad protein assay reagent (diluted with water 1:10) were added. […] As reference a standard curve with BSA was employed within each test. Each determination was carried out in duplicates.
The expression of β-galactosidase is equivalent to the quantity of the transactivating activity of substances and samples. The specific enzyme activity is expressed in AhR-units, which are the β-galactosidase-activity normalised to the total protein-level. The data were evaluated according Jungbauer et al..
(§2) For evaluation the AhR-units are plotted against the concentration (logarithmic scaling). The resulting curve is fitted using a logistic dose response function. The calculation and fitting was performed with Table Curve 2D software (Jandel Scientific).

[2] = target: T1, human AhR; assay: Yeast AhR assay, format (tubes or microtiterplate) not stated
Text: as §1, §2
The equivalent concentrations of the extracts and samples were calculated from the logistic dose-response curve of β-naphtoflavone (FIG. 8) and expressed as nmol β-naphtoflavone per g sample or volume of sample.

[3] = target: T1, human AhR; assay: Yeast AhR screen (strain YCM3), assay in microtiterplate
Text: as §1
A colony of YCM3 was transferred in SCM-trp medium and grown to OD600 of about 2.0. For each experiment a new overnight culture was prepared in SCM-trp. For this purpose a 1:10 dilution of the YCM3 yeast stock in SCM-trp medium was prepared. After incubation overnight the culture was diluted to an OD600 of 0.4 and grown again to an OD600 of 1.0 to 1.5. For the assay the culture was 1:50 diluted in Gold galactose-trp media, which contains 1.2% galactose as the inductor.
1 μl of test substance (dissolved in DMSO) and 100 μl of the yeast culture in galactose media were transferred in the wells (flat bottom) of a 96-well sterile microtiterplate. Each determination was carried out in duplicates. A calibration curve with β-naphtoflavone was performed within each test run. For better results only the inner part of the plate was used for the assay, because of a greater evaporation in the outer wells (row A and H, column 1 and 12). 150 μl of the diluted yeast culture were transferred into the outer wells. The microtiterplate was incubated for 17 h at 30° C. and while shaking.
The disintegration of the assay was performed with N-lauroylsarcosine, a strong detergent. A related method was described by Kippert, who used 1.5 ml centrifuge tubes and a disintegration with a 0.2% sarcosyl-solution. For the microtiterplate assay a modified version was used and the disintegration was performed via a 0.5% sarcosyl-solution. To circumvent a centrifugation of the plate and a transfer of the supernatant in another plate, what would complicate the assay unnecessarily, the calculation of the AhR-units was related to the optical density of 600 nm, instead of the protein level. A similar proceeding was applied by Adachi et al. and Miller.
After incubation 150 μl Z-Sarcosyl-buffer to each well were added. Then the OD was measured at 600 nm. For complete disintegration of the cells the plate was incubated for 20 min at 30° C. Afterwards 50 μl of ONPG-solution (a 1:6 diluted) were added to each well and incubated at 37° C. until a yellow colour had developed. The reaction was stopped by adding of 50 μl 1 M Na2CO3 and the reaction time was noticed. The absorption was measured at 405 nm (reference wavelength 620 nm).
The results of the β-galactosidase-assay of the AhR screen in microtiterplates were referenced to cell density (measured as the optical cell density at a wavelength of 600 nm). The calculation of the AhR-units is realised as follows:
OD405 and OD600 are the optical densities at a wavelength of 405 nm respectively 600 nm and Δt is the incubation time at 37° C. in minutes.
as §2

[4] = in plastic tubes, logistic dose response fit
[5] = in microtiterplate, logistic dose response fit
[6] = in microtiterplate, logistic dose response fit, read-out: Potency

T1 sequence (P35869 11-848): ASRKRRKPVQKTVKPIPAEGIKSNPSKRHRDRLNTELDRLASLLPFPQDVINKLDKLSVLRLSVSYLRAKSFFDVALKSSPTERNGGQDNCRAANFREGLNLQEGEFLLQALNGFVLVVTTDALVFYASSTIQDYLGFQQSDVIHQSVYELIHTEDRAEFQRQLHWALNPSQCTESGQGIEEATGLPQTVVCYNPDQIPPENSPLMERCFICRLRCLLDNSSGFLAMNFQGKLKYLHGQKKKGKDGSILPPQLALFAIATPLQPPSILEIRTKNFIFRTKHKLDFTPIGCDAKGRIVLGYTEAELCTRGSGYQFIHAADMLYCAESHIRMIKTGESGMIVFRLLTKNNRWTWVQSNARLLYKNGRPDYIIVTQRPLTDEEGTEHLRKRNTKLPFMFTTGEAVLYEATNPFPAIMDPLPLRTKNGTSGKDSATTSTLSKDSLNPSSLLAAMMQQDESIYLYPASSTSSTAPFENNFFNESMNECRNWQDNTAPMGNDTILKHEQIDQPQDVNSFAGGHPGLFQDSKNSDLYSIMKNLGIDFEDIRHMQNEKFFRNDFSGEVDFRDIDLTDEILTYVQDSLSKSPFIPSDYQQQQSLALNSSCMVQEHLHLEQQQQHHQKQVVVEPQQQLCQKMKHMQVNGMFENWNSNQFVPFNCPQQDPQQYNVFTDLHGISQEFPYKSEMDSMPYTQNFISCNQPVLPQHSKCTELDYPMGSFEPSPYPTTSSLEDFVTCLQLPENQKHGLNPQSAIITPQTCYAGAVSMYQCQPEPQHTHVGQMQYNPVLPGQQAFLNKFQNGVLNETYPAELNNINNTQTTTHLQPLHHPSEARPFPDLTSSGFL
T1 sequence (P27540 whole entry partner): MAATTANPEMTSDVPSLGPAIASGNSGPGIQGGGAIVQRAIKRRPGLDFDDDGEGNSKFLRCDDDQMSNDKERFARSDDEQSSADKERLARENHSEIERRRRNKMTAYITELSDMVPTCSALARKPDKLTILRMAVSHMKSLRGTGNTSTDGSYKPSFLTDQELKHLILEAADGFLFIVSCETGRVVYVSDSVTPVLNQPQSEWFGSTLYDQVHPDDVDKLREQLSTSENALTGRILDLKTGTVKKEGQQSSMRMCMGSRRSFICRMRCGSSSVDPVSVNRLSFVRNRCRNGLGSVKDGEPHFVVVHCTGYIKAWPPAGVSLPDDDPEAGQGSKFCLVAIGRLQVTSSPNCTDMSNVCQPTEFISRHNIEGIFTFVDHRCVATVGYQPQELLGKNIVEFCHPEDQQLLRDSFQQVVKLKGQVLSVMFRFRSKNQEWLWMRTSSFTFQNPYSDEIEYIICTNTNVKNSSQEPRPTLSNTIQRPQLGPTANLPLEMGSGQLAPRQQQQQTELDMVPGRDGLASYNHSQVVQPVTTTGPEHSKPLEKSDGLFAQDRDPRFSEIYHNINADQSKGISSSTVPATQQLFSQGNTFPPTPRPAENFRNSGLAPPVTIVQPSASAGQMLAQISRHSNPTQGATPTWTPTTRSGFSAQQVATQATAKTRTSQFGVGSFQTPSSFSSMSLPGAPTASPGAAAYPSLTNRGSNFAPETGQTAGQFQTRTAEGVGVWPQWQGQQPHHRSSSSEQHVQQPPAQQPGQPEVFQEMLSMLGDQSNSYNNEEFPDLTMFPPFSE

Compound: O=C(O)/C=C/c1ccc(O)c(O)c1 [Caffeic acid]
Potency (mol/l) [1, 4]: no activity
transactivation of the AhR (in words) ([1]; pure compounds in DMSO): no activity

Compound: CCCCOC(=O)c1ccccc1C(=O)OCCCC [Phtalic acid dibutyl ester]
Potency (mol/l) [1]: no activity

Compound: O=c1c(-c2ccc(O)cc2)coc2cc(O)ccc12 [Daidzein]
Potency (mol/l) [1]: no activity

Compound: O=C(O)c1cc(O)c(O)c(O)c1 [Gallic acid]
Potency (mol/l) [1]: no activity
transactivation of the AhR (in words) [1]: no activity

Compound: C[C@]12CC[C@@H]3c4ccc(O)cc4CC[C@H]3[C@@H]1CC[C@@H]2O [17-β-Estradiol]
Potency (mol/l) [1, 4]: no activity

Compound: Oc1cc(O)c2c(c1)O[C@H](c1ccc(O)c(O)c1)[C@H](O)C2 [Epicatechin]
Potency (mol/l) [1, 4]: no activity

Compound: Oc1ccc([C@H]2COc3cc(O)ccc3C2)cc1 [Equol]
Potency (mol/l) [1]: active^c
transactivation of the AhR (in words) ([1]; pure compounds in DMSO): a transactivation took place
Potency (mol/l) [3]: active^c

Compound: O=c1cc(-c2ccc(O)cc2)oc2cc(O)cc(O)c12 [Apigenin]
Potency (mol/l) [1]: active^c
transactivation of the AhR (in words) ([1]; pure compounds in DMSO): a transactivation took place
Potency (mol/l) [3, 5]: active^c

Compound: O=c1oc2cc(O)ccc2c2oc3cc(O)ccc3c12 [Coumestrol]
EC50 [1]: 2090 nM
EC50 [3]: 1040 nM

Compound: COc1ccc(-c2coc3cc(O)cc(O)c3c2=O)cc1 [Biochanin A]
EC50 [1]: 599 nM
EC50 [3, 6]: 125 nM

Compound: Catechin
Potency (mol/l) [1, 4]: no activity

Compound: COc1cc(/C=C/C(=O)CC(=O)/C=C/c2ccc(O)c(OC)c2)ccc1O [Curcumin]
Potency (mol/l) [1, 4]: no activity

Compound: COc1ccc(-c2cc(=O)c3c(O)cc(O[C@@H]4O[C@H](CO[C@@H]5O[C@@H](C)[C@H](O)[C@@H](O)[C@H]5O)[C@@H](O)[C@H](O)[C@H]4O)cc3o2)cc1O [Diosmin]
Potency (mol/l) [1, 4]: no activity

Compound: CC[C@H](CC[C@@H](C)[C@H]1CC[C@H]2[C@@H]3CC=C4C[C@@H](O)CC[C@]4(C)[C@H]3CC[C@]12C)C(C)C [β-Sitosterol]
Potency (mol/l) [1, 4]: no activity
transactivation of the AhR (in words) ([1]; pure compounds in DMSO): failed also in transactivating the AhR

Further lines, with some results ahead:

Potency (mol/l) [1, 4]: no activity
transactivation of the AhR (in words) ([1]; pure compounds in DMSO): no activity
Compound: COc1cc(/C=C/C(=O)O)ccc1O [Ferulic acid]

Potency (mol/l) [1, 4]: no activity
Compound: O=c1c(-c2ccc(O)cc2)coc2cc(O)cc(O)c12 [Genistein]
transactivation of the AhR (in words) ([1]; pure compounds in DMSO): no transcriptional activity; also recorded: do not activate the AhR

Potency (mol/l) [1, 4]: no activity
Compound: O=C(CCc1ccc(O)cc1)c1c(O)cc(O)cc1O [Phloretin]

equivalent concentration ([2]; preliminary isolate from preparative HPLC): 79 μmol β-naphtoflavone per gram sample
Compound: O=C(Cc1c[nH]c2ccccc12)c1ccco1 [compound “X”, 1-(2-furanyl)2-(3-indolyl)ethanone]

Potency (mol/l) [1, 4]: active ^c
transactivation of the AhR (in words) ([1]; pure compounds in DMSO): a transactivation took place
Potency (mol/l) [3, 5]: active ^c
Compound: O=C1C[C@@H](c2ccc(O)cc2)Oc2cc(O)cc(O)c21 [Naringenin]

EC50 ([1]; in plastic tubes, logistic dose response fit, read-out: Potency): 10 nM
EC50 [3, 6]: 280 nM
EC50 ([2]; Example 10 text, read-out: EC50 value of the standard compound): ~10 nM
EC50 ([2]; reference standard, read-out: EC50 value): 28 nM
Compound: O=c1cc(-c2ccccc2)oc2ccc3ccccc3c12 [β-Naphtoflavone]

EC50 [1]: 923 nM
EC50 [3]: 253 nM
EC50 [2]: 120 to 920 nM
Compound: COc1ccc(-c2coc3cc(O)ccc3c2=O)cc1 [Formononetin]

transactivation of the AhR (in words) ([1]; pure compounds in DMSO): failed also in transactivating the AhR
Compound: CC/C(=C(/CC)c1ccc(O)cc1)c1ccc(O)cc1 [diethylstilbestrol]

Potency (mol/l) [1]: no activity
transactivation of the AhR (in words) [1]: no activity
Compound: COc1ccc(-c2cc(=O)c3c(OC)c(OC)c(OC)c(OC)c3o2)cc1 [Tangeritin]

Potency (mol/l) [1, 4]: no activity
transactivation of the AhR (in words) ([1]; pure compounds in DMSO): failed also in transactivating the AhR
Compound: CC(=O)[C@H]1CC[C@H]2[C@@H]3CCC4=CC(=O)CC[C@]4(C)[C@H]3CC[C@]12C [Progesteron]

EC50 [3]: 7000 nM
EC50 [2]: 7000 nM
Compound: OCc1c[nH]c2ccccc12 [Indole-3-carbinol]

Potency (mol/l) [1, 4]: no activity
Compound: O=c1c(O)c(-c2ccc(O)c(O)c2)oc2cc(O)cc(O)c12 [Quercetin]
transactivation of the AhR (in words) ([1]; pure compounds in DMSO): no activity; also recorded: do not activate the AhR
